Reference: patent US8246966B2, “Trypanosome microsome system and uses thereof” (priority 2006, dated 2012)

Assays:
[1] = system: T. brucei microsomes (TbRM); assay: Post-translational import of VSG-11786 into TbRM with inhibitors (Example 4); format: biochemical, Trypanosoma brucei; details: 10 μM
Protocol: FIGS. 7A to 7C. […] VSG-11786 mRNA was translated in rabbit reticulocyte lysate in the absence or presence of T. brucei cytosol for 1 hour at 37° C., and then cycloheximide was added to stop protein synthesis. TbRM (1 equivalent) and MAL3-101 (10 μM), MAL3-51 (10 μM), or an equal volume of DMSO was added to the samples on ice, and the mixture was incubated at 37° C. for 1.5 hours for translocation of VSG-11786 into the microsomes. Reaction mixtures were treated with proteinase K (PK) for one hour on ice. Proteolysis was terminated with PMSF. Proteins were precipitated with ammonium sulfate, pelleted by centrifugation, resuspended in SDS-PAGE sample buffer, and resolved by Tris-Tricine SDS-PAGE. Gel images were obtained with a phosphorimager and analyzed with Quantity-One software. Reaction mixtures for odd numbered lanes contained TbRM, but not proteinase K; even numbered lanes contained TbRM and proteinase K. Brackets denote lanes that were compared to obtain percentage of VSG-11786 import values. FIG. 7B is a graphical representation of data from FIG. 7A. […] In FIG. 7C, the effect of MAL3-101 on T. brucei growth.
FIGS. 8A to 8D. Effects of NFI028 and CAM741 on import of VSG-11786 into T. brucei microsomes. […] VSG-11786 mRNA was translated in rabbit reticulocyte lysate in the presence of T. brucei cytosol for one hour at 37° C., and then protein synthesis was stopped by the addition of cycloheximide. […] Reaction mixtures were treated with proteinase K (PK) on ice for one hour. Proteolysis was terminated with PMSF. Proteins were precipitated with ammonium sulfate, pelleted, resuspended in SDS-PAGE sample buffer, and resolved by Tris-Tricine SDS-PAGE. Images of radiolabeled proteins were obtained with a phosphorimager and quantitated with Quantity-One software. Samples depicted in odd numbered lanes contained TbRM, but were not treated proteinase K. Reaction mixtures shown in even numbered lanes contained TbRM and were treated with proteinase K. Brackets denote lanes that were compared to each other in order to obtain percentage of VSG-11786 import values. FIG. 8B is a graphical representation of data from FIG. 8A.
FIGS. 9A to 9D. Effects of azide, AEE788, and valinomycin on VSG-11786 import into T. brucei microsomes. […] VSG-11786 mRNA was translated in rabbit reticulocyte lysate in the presence of T. brucei cytosol for one hour at 37° C. Cycloheximide was added to stop proteins synthesis. TbRM (1 equivalent) and sodium azide (8 μM), AEE788 (8 μM), an equal volume of microsome buffer (RMB) or DMSO was added to the samples on ice, and the mixtures were incubated at 37 C for 1.5 hours. Reaction mixtures were treated with proteinase K (PK) on ice for one hour. Proteolysis was terminated with PMSF. Proteins were precipitated with ammonium sulfate, pelleted, resuspended in SDS-PAGE sample buffer, and resolved by Tris-Tricine SDS-PAGE. Images of radiolabeled proteins were obtained with a phosphorimager and quantitated with Quantity-One software. Brackets show lanes that were compared to each other in order to obtain percentage of VSG-11786 imported into TbRM. Lanes 1, 3, 5, & 7 were treated with TbRM, but not proteinase K. Lanes 2, 4, 6, & 8 were treated with TbRM and proteinase K. FIG. 9B is a graphical representation of data from FIG. 9A. […] Reaction mixtures depicted in odd lanes contained TbRM, but were not treated with proteinase K; even lanes contained TbRM and were treated with proteinase K. FIG. 9D is a graphical representation of data from panel FIG. 9C.

[2] = system: Bloodstream T. brucei CA427; assay: Bloodstream T. brucei cell culture drug susceptibility (Example 4); format: cell-based, Trypanosoma brucei; details: cultured bloodstream T. brucei
Protocol: Cell Culture. Bloodstream T. brucei cell culture and drug susceptibility studies were performed as previously described. Bloodstream T. brucei CA427 were cultured in HMI-9 media (Hirumi and Hirumi, 1994, Parasitol Today; 10(2):80-4) to a density of 10^6 cells/ml. Cells were seeded (500 μl of 4×10^4 cells/ml) to a 24-well plate and exposed to MAL3-101, CAM741, and NFI028 at listed concentrations (see figure legends) or an equal volume of DMSO. Cells were incubated at 37° C. and counted after 24 and 48 hours, using a hemocytometer.

## CCCCCCN(C(=O)CCCCCN1C(=O)NC(c2ccc(-c3ccccc3)cc2)C(C(=O)OCc2ccccc2)=C1C)C(C(=O)NCCCC)c1ccc(OCC(=O)OC)c(C(=O)OC)c1 (stereo not shown) [MAL3-101]
[1]; absence of T. brucei cytosol
  reduction of VSG-11786 import into TbRM compared to DMSO control: 54%
[1]; presence of T. brucei cytosol
  VSG-11786 imported into TbRM: 90%
[2]
  concentration killing all parasites: 3 µM
[2]; read-out: IG50, T. brucei growth
  IC50: 1.5 µM
